This experiment concerns the target T1, Enoyl-acyl-carrier protein reductase (Plasmodium falciparum) (UniProt Q965D5).
T1 sequence (whole entry): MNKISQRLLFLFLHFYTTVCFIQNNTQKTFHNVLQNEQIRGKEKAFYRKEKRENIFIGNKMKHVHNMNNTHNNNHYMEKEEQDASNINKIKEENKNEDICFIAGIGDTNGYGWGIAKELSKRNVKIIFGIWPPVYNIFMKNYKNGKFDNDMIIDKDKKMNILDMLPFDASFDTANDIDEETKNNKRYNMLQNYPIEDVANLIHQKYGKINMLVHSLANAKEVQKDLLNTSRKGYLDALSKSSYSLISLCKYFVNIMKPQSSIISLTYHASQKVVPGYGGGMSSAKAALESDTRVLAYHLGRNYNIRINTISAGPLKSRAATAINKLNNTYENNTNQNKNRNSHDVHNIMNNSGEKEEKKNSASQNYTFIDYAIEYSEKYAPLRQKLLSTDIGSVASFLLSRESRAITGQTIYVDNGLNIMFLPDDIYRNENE
The experiment can be described thus: Inhibition of Plasmodium falciparum FabI at 100 uM.

Active and inactive are the calls of the source. No cut-off for these calls is given here.

For the compound `O=c1cc(-c2ccccc2)oc2ccc(O)cc12`, the inhibition result is “inactive”.
In the case of `COc1cc2c(c(O)c1OC)C(=O)C[C@@H](c1ccc(O)cc1)O2`, the inhibition entry was “inactive”.
For the compound `COc1ccc(-c2cc(=O)c3c(O)c(O)c(OC)cc3o2)cc1`, the inhibition result was “inactive”.

These data come from ChEMBL document CHEMBL1208779, “Integrated ligand and structure based studies of flavonoids as fatty acid biosynthesis inhibitors of Plasmodium falciparum” (Bioorg Med Chem Lett, 2010).
